Where a name gives a salt, the structure may show the parent alone.
Legend:
Assay type in all cases: cell-based
PPARγ = molecular target: T1, PPARγ (Homo sapiens, UniProt P37231); test: Crossover-curve PPAR transactivation test, PPARγ; details: HeLN cells stably transfected with Gal-hPPARγ and luciferase reporter; Schild regression against reference agonist; n.a. means not active; read-out: PPARγ Kd app
T1 construct: Either way it is a handle and not a second protein
T1 sequence (P37231 238-505 limits assumed): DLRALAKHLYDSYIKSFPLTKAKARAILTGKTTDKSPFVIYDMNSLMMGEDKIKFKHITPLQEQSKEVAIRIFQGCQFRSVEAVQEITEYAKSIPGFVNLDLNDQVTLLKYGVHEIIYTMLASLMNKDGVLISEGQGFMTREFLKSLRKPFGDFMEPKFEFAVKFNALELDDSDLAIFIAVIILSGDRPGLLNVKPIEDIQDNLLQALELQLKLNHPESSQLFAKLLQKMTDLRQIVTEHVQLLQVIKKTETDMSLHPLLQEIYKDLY
Protocol: (§1) The activation of PPAR receptors with an agonist (activator) in HeLN cells leads to the expression of a reporter gene, luciferase, which, in the presence of a substrate, generates light. The modulation of the PPAR receptors is measured by quantifying the luminescence produced after incubating the cells in the presence of a reference agonist. The ligands displace the agonist from its site. The measurement of the activity is performed by quantifying the light produced. This measurement makes it possible to determine the modulatory activity of the compounds according to the invention by determining the constant that is the affinity of the molecule for the PPAR receptor. Since this value can fluctuate depending on the basal activity and the expression of the receptor, it is referred to as Kd apparent (KdApp in nM).
(§2) To determine this constant, “crossover curves” of the test product against a reference agonist are performed in a 96-well plate: 10 concentrations of the test product plus a concentration 0 are arranged in a line, and 7 concentrations of the agonist plus a concentration 0 are arranged in a column. This is 88 measurement points for 1 product and 1 receptor. The remaining 8 wells are used for repeatability controls.
(§3) Measurements are also taken for total agonist controls with the same products.
(§4) The HeLN cell lines used are stable transfectants containing the plasmids ERE-βGlob-Luc-SV-Neo (reporter gene) and PPAR (α, δ, γ) Gal-hPPAR. These cells are inoculated into 96-well plates at a rate of 10 000 cells per well in 100 μl of DMEM medium without phenol red and supplemented with 10% of defatted calf serum. The plates are then incubated at 37° C. and 7% CO2 for 16 hours.
(§5) The various dilutions of the test products and of the reference ligand are added at a rate of 5 μl per well. The plates are then incubated for 18 hours at 37° C. and 7% CO2. The culture medium is removed by turning over and 100 μl of a 1:1 PBS/luciferine mixture are added to each well. After 5 minutes, the plates are read by the luminescence detector.

PPARδ = molecular target: T2, PPARδ (Homo sapiens, UniProt Q03181); test: Crossover-curve PPAR transactivation test, PPARδ; details: HeLN cells stably transfected with Gal-hPPARδ and luciferase reporter; Schild regression against reference agonist; n.a. means not active; read-out: PPARδ Kd app
T2 construct: Either way it is a handle and not a second protein
T2 sequence (Q03181 211-441 limits assumed): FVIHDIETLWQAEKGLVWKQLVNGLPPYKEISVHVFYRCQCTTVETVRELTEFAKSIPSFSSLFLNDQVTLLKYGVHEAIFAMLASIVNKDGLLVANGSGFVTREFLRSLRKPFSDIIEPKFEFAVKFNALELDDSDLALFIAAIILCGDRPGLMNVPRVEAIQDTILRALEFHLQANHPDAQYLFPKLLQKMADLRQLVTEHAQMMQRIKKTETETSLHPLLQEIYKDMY
Protocol: as §1
To determine this constant, “crossover curves” of the test product against a reference agonist are performed in a 96-well plate: 10 concentrations of the test product plus a concentration 0 are arranged in a line, and 7 concentrations of the agonist plus a concentration 0 are arranged in a column. This is 88 measurement points for 1 product and 1 receptor. […]
The various dilutions of the test products and of the reference ligand are added at a rate of 5 μl per well. […] After 5 minutes, the plates are read by the luminescence detector.

PPARα = molecular target: T3, PPARα (Homo sapiens, UniProt Q07869); test: Crossover-curve PPAR transactivation test, PPARα; details: HeLN cells stably transfected with Gal-hPPARα and luciferase reporter; Schild regression against reference agonist; n.a. means not active; read-out: PPARα Kd app
T3 construct: Either way it is a handle and not a second protein
T3 sequence (Q07869 200-468 limits assumed): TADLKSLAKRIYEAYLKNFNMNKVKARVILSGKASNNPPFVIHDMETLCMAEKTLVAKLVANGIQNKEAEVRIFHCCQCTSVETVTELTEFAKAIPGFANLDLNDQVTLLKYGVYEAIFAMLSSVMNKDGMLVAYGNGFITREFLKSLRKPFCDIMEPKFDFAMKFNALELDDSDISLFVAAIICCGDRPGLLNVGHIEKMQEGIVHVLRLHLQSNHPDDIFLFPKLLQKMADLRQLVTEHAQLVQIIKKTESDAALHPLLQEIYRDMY
Protocol: as §1, §2, §3, §4, §5

SMILES	Kd (PPARγ) [nM]	Kd (PPARδ) [nM]	Kd (PPARα) [nM]
CCCCCNC(=O)N(C)c1cccc(-c2ccc(CCC(=O)O)cc2OCCCC)n1 [Example 11, 2-[2-butoxy-4-(2-carboxyethyl)phenyl]-6-(1-methyl-3-pentylureido)pyridinium hydrochloride]	120	–	2000
CCCCCCCNC(=O)N(C)c1cccc(-c2ccc(CCC(=O)O)cc2OCCCC)n1 [Example 12, 2-[2-butoxy-4-(2-carboxyethyl)phenyl]-6-(1-methyl-3-heptylureido)pyridinium hydrochloride]	15	–	4000
CCCCCCCC(=O)N(C)Cc1cc(-c2ccc(CCC(=O)O)cc2OCCCC)cs1 [Example 14, 3-(3-butoxy-4-{5-[(methyloctanoylamino)methyl]thiophen-3-yl}phenyl)propanoic acid]	2	–	–
CCCCOc1cc(CCC(=O)O)ccc1-c1csc(CN(C)C(=O)c2ccc(OC)cc2)c1 [Example 15, 3-[3-butoxy-4-(5-{[(4-methoxybenzoyl)methylamino]methyl}thiophen-3-yl)phenyl]propanoic acid]	30	–	–
CCCCOc1cc(CCC(=O)O)ccc1-c1csc(CN(C)C(=O)c2cccc(OC)c2)c1 [Example 16, 3-[3-butoxy-4-(5-{[(3-methoxybenzoyl)methylamino]methyl}thiophen-3-yl)phenyl]propanoic acid]	30	–	–

Now from value to compound, other results behind:

Kd (PPARγ) [nM]	Kd (PPARδ) [nM]	SMILES	Kd (PPARα) [nM]
1000	–	CCCCCCCC(=O)N(C)Cc1cccc(-c2ccc(/C=C/C(=O)O)s2)c1 [Example 1, 3-(5-{3-[(methyloctanoylamino)methyl]phenyl}thiophen-2-yl)acrylic acid]	–
500	–	CCCCCCCC(=O)N(C)Cc1cccc(-c2ccc(CCC(=O)O)s2)c1 [Example 2, 3-(5-{3-[(methyloctanoylamino)methyl]phenyl}thiophen-2-yl)propanoic acid]	–
250	4000	CCCCCCCNC(=O)N(C)c1cccc(-c2ccc(CCC(=O)O)cc2)n1 [Example 6, 3-{4-[6-(3-heptyl-1-methylureido)pyrid-2-yl]phenyl}propanoic acid]	–
60	–	CCCCCCCNC(=O)N(C)c1cccc(-c2ccc(CCC(=O)O)cn2)c1 [Example 7, 3-{6-[3-(3-heptyl-1-methylureido)phenyl]pyrid-3-yl}propanoic acid]	–
1000	–	CCCCCCCNC(=O)N(C)c1ccnc(-c2ccc(CCC(=O)O)cc2)c1 [Example 8, 2-[4-(2-carboxyethyl)phenyl]-4-(3-heptyl-1-methylureido)pyridinium acetate]	–
120	8000	CCCCCCCNC(=O)N(C)c1cccc(-c2ccc(CCC(=O)O)cc2OCC)n1 [Example 13, 2-[4-(2-carboxyethyl)-2-ethoxyphenyl]-6-(3-heptyl-1-methylureido)pyridinium hydrochloride]	4000

Source: patent US8513297B2, “Biaromatic compounds that modulate PPARy type receptors and cosmetic/pharmaceutical compositions comprised thereof” (Galderma Research & Development, priority 2004, dated 2013)
